Drawing on patent US11168083B2, “Inhibitors of Plasma Kallikrein and uses thereof” (Takeda Pharmaceutical Company Limited, priority 2017, dated 2021), this text covers EC50 for 23 molecules.

Some results are limits rather than exact numbers.

human activated kallikrein enzyme, sequence (P03952 391-638): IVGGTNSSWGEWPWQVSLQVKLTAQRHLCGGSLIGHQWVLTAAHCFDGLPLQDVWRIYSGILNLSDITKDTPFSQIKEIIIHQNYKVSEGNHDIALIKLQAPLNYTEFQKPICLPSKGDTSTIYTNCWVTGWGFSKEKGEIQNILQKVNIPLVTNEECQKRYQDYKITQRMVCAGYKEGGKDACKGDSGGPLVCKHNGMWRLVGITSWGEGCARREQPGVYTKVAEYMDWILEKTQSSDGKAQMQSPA
human activated kallikrein enzyme, sequence (P03952 20-390 partner): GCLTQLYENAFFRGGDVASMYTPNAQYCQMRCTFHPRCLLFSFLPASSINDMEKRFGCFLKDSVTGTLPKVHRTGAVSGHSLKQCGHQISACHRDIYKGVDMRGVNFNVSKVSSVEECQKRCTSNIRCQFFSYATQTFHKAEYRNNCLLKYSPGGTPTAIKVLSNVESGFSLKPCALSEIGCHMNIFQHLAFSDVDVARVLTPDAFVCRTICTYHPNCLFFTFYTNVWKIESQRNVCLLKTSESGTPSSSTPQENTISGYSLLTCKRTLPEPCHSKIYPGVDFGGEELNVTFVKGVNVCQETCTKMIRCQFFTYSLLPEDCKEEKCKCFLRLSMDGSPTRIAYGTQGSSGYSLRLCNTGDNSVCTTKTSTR

In this experiment the target is human activated kallikrein enzyme (Homo sapiens (Human), UniProt P03952). The experiment is described as follows: Inhibition of human activated kallikrein enzyme, fluorogenic peptide substrate assay (two formats). Format: biochemical. The following applies: Table 2; column head prints nM, ranges defined in μM; read-out: pKal EC50. Here is the method:
The example compounds were evaluated for inhibition of the human activated kallikrein enzyme in two formats of an assay employing a fluorogenic peptide substrate. In one assay format, the concentrations of reagents were as follows: 20 mM Tris pH 7.5, 1 mM EDTA, 150 mM sodium chloride, 0.1% PEG-400, 0.1% Triton X-100, 500 pM activated kallikrein enzyme, 300 uM Pro-Phe-Arg-7-amido-4-methylcoumarin substrate. Prior to reaction initiation with substrate, enzyme and inhibitors were preincubated for 30 min at room temperature. After initiation with substrate, reactions were incubated for 10 min at room temperature and fluorescence emission at 460 nm from 380 nm excitation measured with a microplate reader. In another assay format, the concentrations of reagents were as follows: 20 mM Tris pH 7.5, 1 mM EDTA, 150 mM sodium chloride, 0.1% PEG-400, 0.1% Triton X-100, 5 pM activated kallikrein enzyme, 300 uM Pro-Phe-Arg-7-amido-4-methylcoumarin substrate. Prior to reaction initiation with substrate, enzyme and inhibitors were preincubated for 30 min at room temperature. After initiation with substrate, reactions were incubated for 18 hr at room temperature and fluorescence emission at 460 nm from 380 nm excitation measured with a microplate reader.
As for `CNC(=O)[C@H](CCCCNC(=N)N)NC(=O)c1csc([C@@H]2C[C@@H](N)CN2C(=O)OCc2cccc(Cl)c2)n1` [Compound 16, 3-chlorobenzyl (2S,4R)-4-amino-2-(4-(((S)-6-guanidino-1-(methylamino)-1-oxohexan-2-yl)carbamoyl)thiazol-2-yl)pyrrolidine-1-carboxylate], the EC50 lay within 1000 to 5000 nM. Take `CNC(=O)[C@H](CCCCNC(=N)N)NC(=O)c1csc([C@@H]2C[C@@H](N)CN2C(=O)c2ccc3c(Cl)csc3c2)n1` [Compound 43, 2-((2S,4R)-4-amino-1-(3-chlorobenzo[b]thiophene-6-carbonyl)pyrrolidin-2-yl)-N—((S)-6-guanidino-1-(methylamino)-1-oxohexan-2-yl)thiazole-4-carboxamide]: the EC50 lay within 5000 to 9900 nM. For the molecule `CNC(=O)[C@H](CCCCNC(=N)N)NC(=O)c1csc([C@@H]2C[C@@H](N)CN2C(=O)C2CCCCC2)n1` [Compound 17, 2-((2S,4R)-4-amino-1-(cyclohexanecarbonyl)pyrrolidin-2-yl)-N—((S)-6-guanidino-1-(methylamino)-1-oxohexan-2-yl)thiazole-4-carboxamide], the concentration giving a half-maximal response (EC50) is greater than 9900 nM.

Turning to `CNC(=O)[C@H](CCCCNC(=N)N)NC(=O)c1csc([C@@H]2C[C@@H](N)CN2C(=O)c2cc3cc(Cl)ccc3s2)n1` [Compound 44, 2-((2S,4R)-4-amino-1-(5-chlorobenzo[b]thiophene-2-carbonyl)pyrrolidin-2-yl)-N—((S)-6-guanidino-1-(methylamino)-1-oxohexan-2-yl)thiazole-4-carboxamide], the EC50 was 100 to 1000 nM. Take `CNC(=O)[C@H](CCCCNC(=N)N)NC(=O)c1csc([C@H]2C[C@@H](N)CN2C(=O)c2cn3cc(Cl)ccc3n2)n1` [Compound 1, 2-((2R,4R)-4-amino-1-(6-chloroimidazo[1,2-a]pyridine-2-carbonyl)pyrrolidin-2-yl)-N—((S)-6-guanidino-1-(methylamino)-1-oxohexan-2-yl)thiazole-4-carboxamide]: the EC50 was 1000 to 5000 nM.

On to `CNC(=O)[C@H](CCCCNC(=N)N)NC(=O)c1csc([C@@H]2C[C@H](O)CN2C(=O)c2cn3cc(Cl)ccc3n2)n1` [Compound 37, 2-((2S,4S)-1-(6-Chloroimidazo[1,2-a]pyridine-2-carbonyl)-4-hydroxypyrrolidin-2-yl)-N—((S)-6-guanidino-1-(methylamino)-1-oxohexan-2-yl)thiazole-4-carboxamide], for which the EC50 lay in the range of 1000 to 5000 nM. With `Cc1cc(N)nc(C)c1CNC(=O)c1csc([C@@H]2C[C@@H](N)CN2C(=O)c2cn3cc(Cl)ccc3n2)n1` [Compound 48, 2-((2S,4R)-4-amino-1-(6-chloroimidazo[1,2-a]pyridine-2-carbonyl)pyrrolidin-2-yl)-N-((6-amino-2,4-dimethylpyridin-3-yl)methyl)thiazole-4-carboxamide], the EC50 fell in the range of 100 to 1000 nM.

As to `CNC(=O)[C@H](CCCCNC(N)=O)NC(=O)c1csc([C@@H]2C[C@@H](N)CN2C(=O)c2cn3cc(Cl)ccc3n2)n1` [Compound 27, 2-((2S,4R)-4-amino-1-(6-chloroimidazo[1,2-a]pyridine-2-carbonyl)pyrrolidin-2-yl)-N—((S)-1-(methylamino)-1-oxo-6-ureidohexan-2-yl)thiazole-4-carboxamide], the EC50 is greater than 9900 nM. With `N[C@@H]1C[C@@H](c2nc(C(=O)NCc3n[nH]c4cc(Cl)ccc34)cs2)N(C(=O)c2cn3cc(Cl)ccc3n2)C1` [Compound 59, 2-((2S,4R)-4-amino-1-(6-chloroimidazo[1,2-a]pyridine-2-carbonyl)pyrrolidin-2-yl)-N-((6-chloro-1H-indazol-3-yl)methyl)thiazole-4-carboxamide], the EC50 was greater than 9900 nM. With `CNC(=O)[C@H](CCCCNC(=N)N)NC(=O)c1csc([C@@H]2C[C@@H](N)CN2C(=O)c2cn(C)c(C)n2)n1` [Compound 14, 2-((2S,4R)-4-amino-1-(1,2-dimethyl-1H-imidazole-4-carbonyl)pyrrolidin-2-yl)-N—((S)-6-guanidino-1-(methylamino)-1-oxohexan-2-yl)thiazole-4-carboxamide], the half-maximal effective concentration (EC50) was greater than 9900 nM.

For `CNC(=O)[C@H](CCCCNC(=N)N)NC(=O)c1csc([C@@H]2C[C@@H](N)CN2C(=O)c2cc3cc(C(F)(F)F)ccc3s2)n1` [Compound 64, 2-((2S,4R)-4-amino-1-(5-(trifluoromethyl)benzo[b]thiophene-2-carbonyl)pyrrolidin-2-yl)-N—((S)-6-guanidino-1-(methylamino)-1-oxohexan-2-yl)thiazole-4-carboxamide], the EC50 lay in the range of 100 to 1000 nM.

With `CNC(=O)[C@H](CCCCNC(=N)N)NC(=O)c1csc([C@@H]2C[C@@H](N)CN2C(=O)c2ccc3ccccc3c2)n1` [Compound 40, 2-((2S,4R)-1-(2-naphthoyl)-4-aminopyrrolidin-2-yl)-N—((S)-6-guanidino-1-(methylamino)-1-oxohexan-2-yl)thiazole-4-carboxamide], the EC50 lay within 1000 to 5000 nM. As for `CNC(=O)[C@H](CCCCNC(=N)N)NC(=O)c1csc([C@@H]2C[C@@H](N)CN2C(=O)c2ccccc2)n1` [Compound 15, 2-((2S,4R)-4-amino-1-benzoylpyrrolidin-2-yl)-N—((S)-6-guanidino-1-(methylamino)-1-oxohexan-2-yl)thiazole-4-carboxamide], the EC50 was greater than 9900 nM. In the case of `CNC(=O)[C@H](CCC(N)=O)NC(=O)c1csc([C@@H]2C[C@@H](N)CN2C(=O)c2cn3cc(Cl)ccc3n2)n1` [Compound 29, (S)-2-(2-((2S,4R)-4-amino-1-(6-chloroimidazo[1,2-a]pyridine-2-carbonyl)pyrrolidin-2-yl)thiazole-4-carboxamido)-N1-methylpentanediamide], the EC50 was greater than 9900 nM. With `CNC(=O)[C@H](Cc1c[nH]c2ccccc12)NC(=O)c1csc([C@@H]2C[C@@H](N)CN2C(=O)c2cn3cc(Cl)ccc3n2)n1` [Compound 31, N—((S)-3-(1H-indol-3-yl)-1-(methylamino)-1-oxopropan-2-yl)-2-((2S,4R)-4-amino-1-(6-chloroimidazo[1,2-a]pyridine-2-carbonyl)pyrrolidin-2-yl)thiazole-4-carboxamide], the EC50 is greater than 9900 nM. Take `CNC(=O)[C@H](CCCCN)NC(=O)c1csc([C@@H]2C[C@@H](N)CN2C(=O)c2cn3cc(Cl)ccc3n2)n1` [Compound 25, 2-((2S,4R)-4-amino-1-(6-chloroimidazo[1,2-a]pyridine-2-carbonyl)pyrrolidin-2-yl)-N—((S)-6-amino-1-(methylamino)-1-oxohexan-2-yl)thiazole-4-carboxamide]: the half-maximal effective concentration (EC50) is greater than 9900 nM. The result for `CNC(=O)[C@H](CCCCNC(=N)N)NC(=O)c1csc([C@H]2C[C@@H](O)CN2C(=O)c2cn3cc(Cl)ccc3n2)n1` [Compound 9, 2-((2R,4R)-1-(6-Chloroimidazo[1,2-a]pyridine-2-carbonyl)-4-hydroxypyrrolidin-2-yl)-N—((S)-6-guanidino-1-(methylamino)-1-oxohexan-2-yl)thiazole-4-carboxamide] reads greater than 9900 nM; that for `CNC(=O)[C@H](CCCCNC(=N)N)NC(=O)c1csc([C@H]2C[C@@H](NC(C)=O)CN2C(=O)c2cn3cc(Cl)ccc3n2)n1` [Compound 5, 2-((2R,4R)-4-acetamido-1-(6-chloroimidazo[1,2-a]pyridine-2-carbonyl)pyrrolidin-2-yl)-N—((S)-6-guanidino-1-(methylamino)-1-oxohexan-2-yl)thiazole-4-carboxamide], greater than 9900 nM; that for `N=C(N)NCCCC[C@H](NC(=O)c1csc([C@@H]2C[C@@H](N)CN2C(=O)c2cn3cc(Cl)ccc3n2)n1)C(N)=O` [Compound 22, 2-((2S,4R)-4-amino-1-(6-chloroimidazo[1,2-a]pyridine-2-carbonyl)pyrrolidin-2-yl)-N—((S)-1-amino-6-guanidino-1-oxohexan-2-yl)thiazole-4-carboxamide], no more than 100 nM. For the molecule `NCc1ccc(CNC(=O)c2csc([C@@H]3C[C@@H](N)CN3C(=O)c3cn4cc(Cl)ccc4n3)n2)cc1` [Compound 50, 2-((2S,4R)-4-amino-1-(6-chloroimidazo[1,2-a]pyridine-2-carbonyl)pyrrolidin-2-yl)-N-(4-(aminomethyl)benzyl)thiazole-4-carboxamide], the EC50 lay within 5000 to 9900 nM. On to `CNC(=O)[C@H](CCCCNC(=N)N)NC(=O)c1csc([C@H]2C[C@H](O)CN2C(=O)c2cn3cc(Cl)ccc3n2)n1` [Compound 7, 2-((2R,4S)-1-(6-Chloroimidazo[1,2-a]pyridine-2-carbonyl)-4-hydroxypyrrolidin-2-yl)-N—((S)-6-guanidino-1-(methylamino)-1-oxohexan-2-yl)thiazole-4-carboxamide], for which the EC50 was greater than 9900 nM. For `N=C(N)c1ccc(CCNC(=O)c2csc([C@@H]3C[C@@H](N)CN3C(=O)c3cn4cc(Cl)ccc4n3)n2)cc1` [Compound 51, 2-((2S,4R)-4-amino-1-(6-chloroimidazo[1,2-a]pyridine-2-carbonyl)pyrrolidin-2-yl)-N-(4-carbamimidoylphenethyl)thiazole-4-carboxamide], the EC50 is no more than 100 nM. The figure for `N=C(N)c1ccc(CNC(=O)c2csc([C@@H]3C[C@@H](N)CN3C(=O)c3cn4cc(Cl)ccc4n3)n2)cc1` [Compound 47, 2-((2S,4R)-4-amino-1-(6-chloroimidazo[1,2-a]pyridine-2-carbonyl)pyrrolidin-2-yl)-N-(4-carbamimidoylbenzyl)thiazole-4-carboxamide] is no more than 100 nM.

One may read the EC50 as the concentration at which the effect is half-maximal.
